Experimental data published in PubChem BioAssay (NCI).
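Briefly, cells in 96-well plates were exposed to five compound concentrations for 48 h, and endpoints were estimated by linear interpolation. TGI is the concentration that stops growth completely.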

How the values were obtained:
Assay in all cases: DTP human tumour cell line panel, 48 h
SF-295 CNS = tested on: SF-295 CNS
A549 NSCLC = tested on: A549 NSCLC
MDA-MB-435 = tested on: MDA-MB-435
OVCAR-5 ovarian = tested on: OVCAR-5 ovarian
RPMI-8226 leukemia = tested on: RPMI-8226 leukemia
HOP-92 NSCLC = tested on: HOP-92 NSCLC
SN12C renal = tested on: SN12C renal
CAKI-1 renal = tested on: CAKI-1 renal
HS 578T breast = tested on: HS 578T breast
KM12 colon = tested on: KM12 colon
U251 CNS = tested on: U251 CNS
MDA-MB-231 breast = tested on: MDA-MB-231 breast
BT-549 breast = tested on: BT-549 breast
OVCAR-8 ovarian = tested on: OVCAR-8 ovarian
M14 melanoma = tested on: M14 melanoma
SNB-19 CNS = tested on: SNB-19 CNS
SK-OV-3 ovarian = tested on: SK-OV-3 ovarian
NCI/ADR-RES ovarian = tested on: NCI/ADR-RES ovarian
NCI-H23 lung = tested on: NCI-H23 lung
IGROV1 ovarian = tested on: IGROV1 ovarian
MCF7 breast = tested on: MCF7 breast
HOP-62 NSCLC = tested on: HOP-62 NSCLC
CCRF-CEM leukemia = tested on: CCRF-CEM leukemia
NCI-H460 lung = tested on: NCI-H460 lung
HT29 colon = tested on: HT29 colon
TK-10 renal = tested on: TK-10 renal
T-47D breast = tested on: T-47D breast
SK-MEL-5 melanoma = tested on: SK-MEL-5 melanoma
DU-145 prostate = tested on: DU-145 prostate
RXF 393 renal = tested on: RXF 393 renal
K-562 leukemia = tested on: K-562 leukemia
SR leukemia = tested on: SR leukemia
LOX IMVI melanoma = tested on: LOX IMVI melanoma
HL-60(TB) leukemia = tested on: HL-60(TB) leukemia
MDA-N = tested on: MDA-N
HCT-116 colon = tested on: HCT-116 colon
NCI-H226 lung = tested on: NCI-H226 lung
786-0 renal = tested on: 786-0 renal
ACHN renal = tested on: ACHN renal
MALME-3M melanoma = tested on: MALME-3M melanoma
SF-268 CNS = tested on: SF-268 CNS
HCT-15 colon = tested on: HCT-15 colon
SNB-75 CNS = tested on: SNB-75 CNS
SF-539 CNS = tested on: SF-539 CNS
OVCAR-3 ovarian = tested on: OVCAR-3 ovarian
PC-3 prostate = tested on: PC-3 prostate
NCI-H522 lung = tested on: NCI-H522 lung
OVCAR-4 ovarian = tested on: OVCAR-4 ovarian
SK-MEL-28 melanoma = tested on: SK-MEL-28 melanoma
SW-620 colon = tested on: SW-620 colon
A498 renal = tested on: A498 renal
MOLT-4 leukemia = tested on: MOLT-4 leukemia
UO-31 renal = tested on: UO-31 renal
COLO 205 colon = tested on: COLO 205 colon
UACC-62 melanoma = tested on: UACC-62 melanoma
UACC-257 melanoma = tested on: UACC-257 melanoma
HCC-2998 colon = tested on: HCC-2998 colon
SK-MEL-2 melanoma = tested on: SK-MEL-2 melanoma
EKVX NSCLC = tested on: EKVX NSCLC

For `C[C@]12OC(=O)[C@]3(O)CC[C@H]4[C@@H](C[C@@H](O)[C@@]5(Cl)CC=CC(=O)[C@]45C)[C@]45OCC6C(=O)O[C@@H]1C[C@@]6(C)[C@H](C4=O)[C@@]32O5` (some centres undefined), the TGI (SF-295 CNS) was 12.4 µM, the TGI (A549 NSCLC) was 75 µM and the TGI (MDA-MB-435) was 23.8 µM. For the same molecule, the TGI (OVCAR-5 ovarian) was 3.23 µM, the TGI (RPMI-8226 leukemia) was 8.6 µM and the TGI (HOP-92 NSCLC) was 5.68 µM. For the same molecule, the TGI (SN12C renal) was 19.3 µM, the TGI (CAKI-1 renal) was 4.03 µM and the TGI (HS 578T breast) was 44.5 µM. For the same molecule, the TGI (KM12 colon) was 8.59 µM, the TGI (U251 CNS) was 15 µM and the TGI (MDA-MB-231 breast) was 28.6 µM. It also gave a TGI (BT-549 breast) of 2.27 µM, a TGI (OVCAR-8 ovarian) of 8.39 µM and a TGI (M14 melanoma) of 2.47 µM. The TGI (SNB-19 CNS) was 18.2 µM, the TGI (SK-OV-3 ovarian) was 10.9 µM and the TGI (NCI/ADR-RES ovarian) was 60.6 µM. It also gave a TGI (NCI-H23 lung) of 1.83 µM, a TGI (IGROV1 ovarian) of 2.74 µM and a TGI (MCF7 breast) of 4 µM. For the same molecule, the TGI (HOP-62 NSCLC) was 10.3 µM, the TGI (CCRF-CEM leukemia) was 6.69 µM and the TGI (NCI-H460 lung) was 9.54 µM. The TGI (HT29 colon) was 5.35 µM, the TGI (TK-10 renal) was 7.18 µM and the TGI (T-47D breast) was 23.3 µM. It also gave a TGI (SK-MEL-5 melanoma) of 13.2 µM, a TGI (DU-145 prostate) of 24.3 µM and a TGI (RXF 393 renal) of 1.04 µM. For the same molecule, the TGI (K-562 leukemia) was 23.8 µM, the TGI (SR leukemia) was 14.2 µM and the TGI (LOX IMVI melanoma) was 6.46 µM. For the same molecule, the TGI (HL-60(TB) leukemia) was 12.8 µM, the TGI (MDA-N) was 17 µM and the TGI (HCT-116 colon) was 12 µM. The TGI (NCI-H226 lung) was 9.37 µM, the TGI (786-0 renal) was 11.3 µM and the TGI (ACHN renal) was 5.9 µM. The TGI (MALME-3M melanoma) was 5.04 µM, the TGI (SF-268 CNS) was 7.39 µM and the TGI (HCT-15 colon) was 7.61 µM. It also gave a TGI (SNB-75 CNS) of 19.6 µM, a TGI (SF-539 CNS) of 1.97 µM and a TGI (OVCAR-3 ovarian) of 6.65 µM. It also gave a TGI (PC-3 prostate) of 8.71 µM, a TGI (NCI-H522 lung) of 1.14 µM and a TGI (OVCAR-4 ovarian) of 8.63 µM. It also gave a TGI (SK-MEL-28 melanoma) of 75 µM, a TGI (SW-620 colon) of 12.6 µM and a TGI (A498 renal) of 2.91 µM. The TGI (MOLT-4 leukemia) was 17.4 µM, the TGI (UO-31 renal) was 2.57 µM and the TGI (COLO 205 colon) was 17.1 µM. It also gave a TGI (UACC-62 melanoma) of 4.2 µM, a TGI (UACC-257 melanoma) of 8.2 µM and a TGI (HCC-2998 colon) of 2.55 µM. The TGI (SK-MEL-2 melanoma) was 2.71 µM and the TGI (EKVX NSCLC) was 4.91 µM.
